Data as given in patent US11564912B2, “Methods for treating irritable bowel syndrome (IBS)” (Salix Pharmaceuticals, Inc., priority 2008, dated 2023).

What was measured:
[1] = test system: patients with diarrhea-predominant IBS (dIBS); assay: 34-item IBS-QOL questionnaire, rifaximin 550 mg BID vs placebo; assay type: in vivo, human; design: key to Mean Change From Baseline in IBS-QOL Scores at Week 4: change in score on 0–100 scale, higher = better QOL; settings: for Mean Change From Baseline in IBS-QOL Scores at Week 4: Rifaximin 1100 mg/d (n = 191)
Experimental: Both groups received placebo for an additional 14 days after the initial 2-week treatment. Quality of life was assessed with the 34-item IBS-QOL questionnaire at baseline and 4 weeks after initiating treatment. Each item was scored on a 5-point scale (1=not at all; 2=slightly; 3=moderately; 4=quite a bit; and 5=extremely or a great deal). Results for composite and subscale scores were converted to a scale ranging from 0 to 100, with higher scores indicating better QOL.
Following a 2-week initial treatment period, both groups of patients received placebo for an additional 14 days. Quality of life was assessed via the 34-item IBS-QOL questionnaire at baseline and 4 weeks after initiating treatment. Each item was scored on a 5-point scale (1=not at all; 2=slightly; 3=moderately; 4=quite a bit; 5=extremely or a great deal); results for composite and subscale scores were converted to a scale ranging from 0 to 100, with higher scores indicating better QOL.

subjects with IBS [2] = assay: Study 1 of rifaximin 550 mg TID for 14 days, analysis after 3 months; assay type: in vivo, human
From the text: (§1) A measure of efficacy is based on subjects' answers to the Weekly Subject Global Assessment (SGA) questions over the study duration in relation to their IBS symptoms.

subjects with IBS [3] = assay: Combined analysis of the two studies of rifaximin 550 mg TID; assay type: in vivo, human
From the text: as §1

[4] = Rifaximin exposure in subjects having IBS; assay type: in vivo, human
subjects with dIBS = assay: Study of rifaximin BID in subjects with dIBS: adequate relief of IBS symptoms and bloating; assay type: in vivo, human; settings: rifaximin 550 mg BID 14 days, patients with dIBS
subjects with IBS [5] = assay: Combined analysis of the two studies of rifaximin 550 mg TID; assay type: in vivo, human; remark: listed apart in the source
[6] = as previously disclosed by Applicants; cited from earlier work
[7] = oral administration; Descombe et al. 1994; cited from earlier work
[8] = test system: species of Staphylococcus, Streptococcus, Enterococcus, and Enterobacteriaceae; settings: cited from earlier work
[9] = <2 for at least 50% of days in a week for at least 2 weeks during PEP
[10] = at least 2 out of 4 weeks adequate relief during weeks 3 through 6 (weekly question)
[11] = weekly mean vs baseline for at least 2 weeks during PEP
[12] = weekly median vs baseline for at least 2 weeks during PEP

With “(2S,16Z,18E,20S,21S,22R, 23R,24R,25S,26S,27S,28E)-5,6,21,23,25 Pentahydroxy-27-methoxy -2,4,11,16,20,22,24,26-octamethyl-2,7-(epoxypentadeca-(1,11,13)trienimino)benzofuro (4,5-e) pyrido(1,2,-a) benzimidazole-1,15(2H)-dione,25-acetate [Rifaximin]” the “Improvement with rifaximin over placebo, IBS-QOL at Week 4” value (from here on “Improvement with rifaximin over placebo”) ([1]; Body image) was 37.4%, the “Mean Change From Baseline in IBS-QOL Scores at Week 4” value (from here on “Mean Change From Baseline”) ([1]; Body image) was 20.1 and the “Improvement with rifaximin over placebo” value ([1]; Dysphoria) was 25.3%. For the same substance, the “Mean Change From Baseline” value ([1]; Dysphoria) was 24.8, the “Improvement with rifaximin over placebo” value ([1]; Food avoidance) was 22.1% and the “Mean Change From Baseline” value ([1]; Food avoidance) was 25.0. The “Improvement with rifaximin over placebo” value ([1]; Health worry) was 30.6%, the “Mean Change From Baseline” value ([1]; Health worry) was 16.0 and the “Improvement with rifaximin over placebo” value ([1]; Interference with activity) was 22.2%. The “Mean Change From Baseline” value ([1]; Interference with activity) was 22.2, the “Improvement with rifaximin over placebo” value ([1]; Overall score) was 28.7% and the “Mean Change From Baseline” value ([1]; Overall score, 14 days, scale 0 to 100) was 20.4. For the same substance, the “Improvement with rifaximin over placebo” value ([1]; Relationship) was 39.5%, the “Mean Change From Baseline” value ([1]; Relationship) was 14.9 and the “Improvement with rifaximin over placebo” value ([1]; Sexual) was 24.9%. The “Mean Change From Baseline” value ([1]; Sexual) was 13.6, the “Improvement with rifaximin over placebo” value ([1]; Social reaction) was 31.6% and the “Mean Change From Baseline” value ([1]; Social reaction) was 17.3. The “Daily abdominal pain <2, responders” value (subjects with IBS [2]; [9]) was 40%, the “Global IBS symptoms, responders” value (subjects with IBS [2]; [10]) was 41% and the “IBS symptom of Bloating, responders” value (subjects with IBS [2]; [10]) was 40%. The “Abdominal Pain reduction of 2 point in mean, responders” value (subjects with IBS [2]; at least 2 weeks during PEP) was 26%, the “Abdominal Pain reduction of 2 point in median, responders” value (subjects with IBS [2]; at least 2 weeks during PEP) was 37% and the “Abdominal Pain reduction of 3 point in mean, responders” value (subjects with IBS [2]; at least 2 weeks during PEP) was 6% vs 7%. The “Abdominal Pain reduction of 3 point in median, responders” value (subjects with IBS [2]; at least 2 weeks during PEP) was 22%, the “Overall reduction of mean weekly abdominal pain by >=25%, responders” value (subjects with IBS [2]; at least 2 weeks during PEP) was 56% and the “Overall reduction of mean weekly abdominal pain by >=50%, responders” value (subjects with IBS [2]; at least 2 weeks during PEP) was 36%. The “Overall reduction of mean weekly abdominal pain by >=75%, responders” value (subjects with IBS [2]; at least 2 weeks during PEP) was 14%, the “Overall reduction of median weekly abdominal pain by >=25%, responders” value (subjects with IBS [2]; at least 2 weeks during PEP) was 63% and the “Overall reduction of median weekly abdominal pain by >=50%, responders” value (subjects with IBS [2]; at least 2 weeks during PEP) was 44%. For the same substance, the “Overall reduction of median weekly abdominal pain by >=75%, responders” value (subjects with IBS [2]; at least 2 weeks during PEP) was 23%, the “Abdominal pain reduction of 1 point in mean, responders” value (subjects with IBS [2]; [11]) was 52% and the “Abdominal pain reduction of 1 point in median, responders” value (subjects with IBS [2]; [12]) was 63%. For the same substance, the “Abdominal Pain reduction of 2 point in mean, responders” value (subjects with IBS [3]; at least 2 weeks during PEP) was 25%, the “Overall reduction of mean weekly abdominal pain by >=25%, responders” value (subjects with IBS [3]; at least 2 weeks during PEP) was 57% and the “Overall reduction of mean weekly abdominal pain by >=50%, responders” value (subjects with IBS [3]; at least 2 weeks during PEP) was 35%. The “Overall reduction of mean weekly abdominal pain by >=75%, responders” value (subjects with IBS [3]; at least 2 weeks during PEP) was 14%, the “Overall reduction of median weekly abdominal pain by >=25%, responders” value (subjects with IBS [3]; at least 2 weeks during PEP) was 62% and the “Overall reduction of median weekly abdominal pain by >=50%, responders” value (subjects with IBS [3]; at least 2 weeks during PEP) was 44%. For the same substance, the “Overall reduction of median weekly abdominal pain by >=75%, responders” value (subjects with IBS [3]; at least 2 weeks during PEP) was 21%, the “Abdominal pain reduction of 1 point in mean, responders” value (subjects with IBS [3]; [11]) was 52% and the “Rifaximin exposure, fold lower than neomycin exposure” value [4] was “more than 66 fold”. The “Rifaximin exposure, fold lower than rifampin exposure” value [4] was “more than 520 fold”, the “Tolerability, incidence of adverse events compared with placebo” value (subjects with dIBS) was “well tolerated” and the “Daily abdominal pain <2, responders” value (subjects with IBS [5]; [9]) was 39%. For the same substance, the “Global IBS symptoms, responders” value (subjects with IBS [5]; [10]) was 41%, the “IBS symptom of Bloating, responders” value (subjects with IBS [5]; [10]) was 40% and the “Abdominal Pain reduction of 2 point in median, responders” value (subjects with IBS [5]; at least 2 weeks during PEP) was 39%. For the same substance, the “Abdominal Pain reduction of 3 point in mean, responders” value (subjects with IBS [5]; at least 2 weeks during PEP) was 6% vs 7%, the “Abdominal Pain reduction of 3 point in median, responders” value (subjects with IBS [5]; at least 2 weeks during PEP) was 21% and the “Abdominal pain reduction of 1 point in median, responders” value (subjects with IBS [5]; [12]) was 63%. For the same substance, the “Rifaximin exposure in healthy subjects compared with subjects having hepatic encephalopathy” value [6] was “significantly lower”, the Systemic absorption [7] was “negligible” and the “In vitro antibacterial activity” value [8] was “active”.
